“And” between values parts separate entries of the source, which are not always exact repeats. Equal entries are not always repeated. Toxic doses and inconclusive results are not listed. Rule for the calls: active = survival T/C of 150% or more; inactive = T/C below 125% in these data.
Tested on: CD2F1 mice, L1210 leukemia ip, survival T/C
Assay: NCI In Vivo Anticancer Drug Screen. Data for tumor model L1210 Leukemia (intraperitoneal) in CD2F1 (CDF1) mice
Settings: endpoint: mean survival time, higher = longer survival
In short: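 Mice carrying a transplanted tumor received test compound or vehicle alone. The value is the measurement in the treated group divided by that in the vehicle-treated control group.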

[1] = dose: 25.0 mg/kg/injection, schedule: Q01DX009 (ip), vehicle: water
[2] = dose: 50.0 mg/kg/injection, schedule: Q01DX009 (ip), vehicle: water
[3] = dose: 100.0 mg/kg/injection, schedule: Q01DX009 (ip), vehicle: water
[4] = dose: 200.0 mg/kg/injection, schedule: Q01DX009 (ip), vehicle: water
[5] = dose: 100.0 mg/kg/injection, schedule: Q01DX009 (ip), vehicle: saline with Tween-80
[6] = dose: 200.0 mg/kg/injection, schedule: Q01DX009 (ip), vehicle: saline with Tween-80
[7] = dose: 400.0 mg/kg/injection, schedule: Q01DX009 (ip), vehicle: saline with Tween-80
[8] = dose: 100.0 mg/kg/injection, schedule: Q04DX003 (ip), vehicle: saline with Tween-80
[9] = dose: 200.0 mg/kg/injection, schedule: Q04DX003 (ip), vehicle: saline with Tween-80
[10] = dose: 400.0 mg/kg/injection, schedule: Q04DX003 (ip), vehicle: saline with Tween-80
[11] = dose: 50.0 mg/kg/injection, schedule: Q01DX009 (ip), vehicle: saline with Tween-80

Measured: T/C

CC1=C(O)C(=O)OC1c1ccc(C)cc1 (stereo not drawn)
inactive: dose: 12.5 mg/kg/injection, schedule: Q01DX009 (ip), vehicle: other 101 % of control | dose: 25.0 mg/kg/injection, schedule: Q01DX009 (ip), vehicle: other 98 % of control | dose: 50.0 mg/kg/injection, schedule: Q01DX009 (ip), vehicle: other 95 % of control | dose: 100.0 mg/kg/injection, schedule: Q01DX009 (ip), vehicle: other 98 % of control | dose: 200.0 mg/kg/injection, schedule: Q01DX009 (ip), vehicle: other 104 % of control

Nc1nc(N)c(-c2cccc(Cl)c2)c(COc2ccc(NC(=O)Nc3cccc(S(=O)(=O)F)c3)cc2)n1
inactive: dose: 37.5 mg/kg/injection, schedule: Q01DX001 (ip), vehicle: saline with Tween-80 100 % of control | dose: 75.0 mg/kg/injection, schedule: Q01DX001 (ip), vehicle: saline with Tween-80 91 % of control | dose: 150.0 mg/kg/injection, schedule: Q01DX001 (ip), vehicle: saline with Tween-80 92 % of control

CN(C)CCCNc1cc(O)c2c(c1O)C(=O)c1ccccc1C2=O
inactive: [1] 98 % of control | [2] 98 % of control | [3] 95 % of control | [4] 98 % of control

CC(=O)OC1C(OC(C)=O)C(OC(C)=O)C(OS(C)(=O)=O)C(OC(=O)c2ccccc2)C1OC(C)=O (stereo not drawn)
inactive: dose: 100.0 mg/kg/injection, schedule: Q01DX009 (ip), vehicle: Klucel (hydroxypropylcellulose) (HPC) 96 % of control | dose: 200.0 mg/kg/injection, schedule: Q01DX009 (ip), vehicle: Klucel (hydroxypropylcellulose) (HPC) 86 % of control | dose: 400.0 mg/kg/injection, schedule: Q01DX009 (ip), vehicle: Klucel (hydroxypropylcellulose) (HPC) 91 % of control

O=c1[nH]c(=O)c2ncn(C3OC(CO)C(O)C3O)c2[nH]1.O=c1[nH]c(=O)c2ncn(C3OC(CO)C(O)C3O)c2[nH]1.[NH2-].[NH2-].[Pt+2] (stereo not drawn)
inactive: dose: 6.25 mg/kg/injection, schedule: Q#A X018 (ip), vehicle: water 116 % of control | dose: 12.5 mg/kg/injection, schedule: Q04DX003 (ip), vehicle: water 106 % of control | dose: 12.5 mg/kg/injection, schedule: Q#A X018 (ip), vehicle: water 116 % of control | dose: 25.0 mg/kg/injection, schedule: Q#A X018 (ip), vehicle: water 124 % of control | dose: 50.0 mg/kg/injection, schedule: Q04DX003 (ip), vehicle: water 106 % of control | dose: 100.0 mg/kg/injection, schedule: Q04DX003 (ip), vehicle: water 111 % of control | dose: 200.0 mg/kg/injection, schedule: Q04DX003 (ip), vehicle: water 106 % of control | dose: 400.0 mg/kg/injection, schedule: Q04DX003 (ip), vehicle: water 118 % of control

OC1CCCCCCCCCCC12OCCO2 (stereo not drawn)
inactive: dose: 100.0 mg/kg/injection, schedule: Q04DX002 (ip), vehicle: other 98 % of control | dose: 200.0 mg/kg/injection, schedule: Q04DX002 (ip), vehicle: other 113 % of control | dose: 400.0 mg/kg/injection, schedule: Q04DX002 (ip), vehicle: other 95 % of control

COCC(O)Cn1ccnc1[N+](=O)[O-] (stereo not drawn)
inactive: dose: 12.5 mg/kg/injection, schedule: Q01DX009 (ip), vehicle: suspension in saline 102 % of control | dose: 12.5 mg/kg/injection, schedule: Q01DX009 (ip), vehicle: water 100 % of control | dose: 25.0 mg/kg/injection, schedule: Q01DX009 (ip), vehicle: suspension in saline 104 % of control | [1] 101 % of control | dose: 50.0 mg/kg/injection, schedule: Q01DX009 (ip), vehicle: suspension in saline 104 % of control | [2] 103 % of control | dose: 100.0 mg/kg/injection, schedule: Q01DX009 (ip), vehicle: suspension in saline 107 % of control | [3] 97 % of control | dose: 200.0 mg/kg/injection, schedule: Q01DX009 (ip), vehicle: suspension in saline 104 % of control | [4] 103 % of control | dose: 400.0 mg/kg/injection, schedule: Q01DX009 (ip), vehicle: suspension in saline 96 % of control | dose: 400.0 mg/kg/injection, schedule: Q01DX009 (ip), vehicle: water 101 % of control

COc1ccc(CC(O)CO)cc1OCc1ccccc1 (stereo not drawn)
inactive: [5] 95 % of control | [6] 96 % of control | [7] 98 % of control

O/N=C(/CN1CCOCC1)c1ccccc1
inactive: [5] 97 % of control | [8] 102 % of control | [6] 94 % of control | [9] 96 % of control | [7] 96 % of control | [10] 102 % of control

Cc1cc(NC(=O)Nc2ccc(Cl)cc2)no1
inactive: dose: 50.0 mg/kg/injection, schedule: Q01DX009 (ip), vehicle: saline sonified 96 % of control | dose: 100.0 mg/kg/injection, schedule: Q01DX009 (ip), vehicle: saline sonified 96 % of control | dose: 200.0 mg/kg/injection, schedule: Q01DX009 (ip), vehicle: saline sonified 96 % of control

Cc1cc(SCSc2cc(C)[o+]c(C)c2)cc(C)[o+]1
inactive: dose: 100.0 mg/kg/injection, schedule: Q04DX003 (ip), vehicle: Klucel (hydroxypropylcellulose) (HPC) 100 % of control | dose: 200.0 mg/kg/injection, schedule: Q04DX003 (ip), vehicle: Klucel (hydroxypropylcellulose) (HPC) 104 % of control | dose: 400.0 mg/kg/injection, schedule: Q04DX003 (ip), vehicle: Klucel (hydroxypropylcellulose) (HPC) 102 % of control

Nc1ccc(Nc2ccccc2C(=O)O)cc1
inactive: [11] 95 % of control | [5] 103 % of control | [8] 105 % of control | [9] 97 % of control

O=C(O)c1cc([N+](=O)[O-])ccc1Br
inactive: [8] 103 % of control | [9] 105 % of control | [10] 95 % of control

CN(C)/C=N/c1c(CO)c(-c2ccccc2)nn1-c1ccccc1
inactive: [8] 101 % of control | [9] 95 % of control | [10] 95 % of control

CCOc1cc(N)nc2c1nnn2C1OC(CO)C(O)C1O (stereo not drawn)
inactive: dose: 6.25 mg/kg/injection, schedule: Q01DX005 (ip), vehicle: other 107 % of control | dose: 12.5 mg/kg/injection, schedule: Q01DX005 (ip), vehicle: other 98 % of control | dose: 25.0 mg/kg/injection, schedule: Q01DX005 (ip), vehicle: other 101 % of control | dose: 50.0 mg/kg/injection, schedule: Q01DX005 (ip), vehicle: other 98 % of control | dose: 100.0 mg/kg/injection, schedule: Q01DX005 (ip), vehicle: other 101 % of control | dose: 200.0 mg/kg/injection, schedule: Q01DX005 (ip), vehicle: other 98 % of control

OCCN1CCCCCCC1
inactive: dose: 75.0 mg/kg/injection, schedule: Q01DX001 (ip), vehicle: saline 95 % of control | dose: 150.0 mg/kg/injection, schedule: Q01DX001 (ip), vehicle: saline 102 % of control

O=c1[nH]c(=O)n(C2CC(O)C(CO)O2)cc1/C=C/c1cccc([N+](=O)[O-])c1 (stereo not drawn)
inactive: dose: 6.25 mg/kg/injection, schedule: Q01DX005 (ip), vehicle: distilled water + Tween-80 98 % of control | dose: 12.5 mg/kg/injection, schedule: Q01DX005 (ip), vehicle: distilled water + Tween-80 97 % of control | dose: 25.0 mg/kg/injection, schedule: Q01DX005 (ip), vehicle: distilled water + Tween-80 95 % of control | dose: 50.0 mg/kg/injection, schedule: Q01DX005 (ip), vehicle: distilled water + Tween-80 93 % of control | dose: 100.0 mg/kg/injection, schedule: Q01DX005 (ip), vehicle: distilled water + Tween-80 94 % of control

C=C1CC2(OC1=O)C(=O)N(C)c1ccc(I)cc12 (stereo not drawn)
inactive: dose: 6.25 mg/kg/injection, schedule: Q01DX009 (ip), vehicle: saline 100 % of control and 104 % of control | dose: 12.5 mg/kg/injection, schedule: Q01DX009 (ip), vehicle: saline 100 % of control and 112 % of control | dose: 25.0 mg/kg/injection, schedule: Q01DX009 (ip), vehicle: saline 117 % of control and 102 % of control | dose: 50.0 mg/kg/injection, schedule: Q01DX009 (ip), vehicle: saline 105 % of control

CCc1ccc(C)[nH]c1=S
inactive: [11] 105 % of control | dose: 100.0 mg/kg/injection, schedule: Q01DX001 (ip), vehicle: saline with Tween-80 102 % of control | [5] 98 % of control | dose: 200.0 mg/kg/injection, schedule: Q01DX001 (ip), vehicle: saline with Tween-80 102 % of control | [6] 98 % of control

O=S1(=O)OCCC1=C(c1ccccc1)c1ccccc1
inactive: dose: 75.0 mg/kg/injection, schedule: Q04DX003 (ip), vehicle: saline 95 % of control | dose: 150.0 mg/kg/injection, schedule: Q04DX003 (ip), vehicle: saline 97 % of control | dose: 300.0 mg/kg/injection, schedule: Q04DX003 (ip), vehicle: saline 91 % of control

— PubChem BioAssay AID256 (DTP/NCI, 2004)
